Data reported in US20150299233A1, “COMPOSITIONS AND METHODS COMPRISING RHENIUM FOR THE TREATMENT OF CANCERS” (Massachusetts Institute of Technology, priority 2014, published 2015).

Tests used:
A549 cells [1] = experiment: Propidium iodide uptake, flow cytometry; format: cell-based, human; details: for PI uptake versus untreated control cells: 20 μM for 12 h; for effect of N-acetylcysteine pretreatment on induced PI uptake: N-acetylcysteine 3 mM for 1 h; for effect of necrostatin-1 on mediated PI uptake: necrostatin-1 60 μM
Protocol: (§1) Intracellular ROS production and mitochondrial membrane depletion contribute to necroptosis. Cells undergoing necroptosis display necrosis-like morphological features such as loss of cell membrane integrity, increase in organelle and cell volume (oncosis), and intact nuclear membrane. To further test whether 1- and 2-treatment can trigger necroptosis, Hoechst 33258/propidium iodide (PI) double staining was carried out to determine nuclear membrane morphology and integrity. Hoechst 33258 is a DNA minor groove binder that is routinely used to visualize the nucleus without the need for cell permeabilization. When used without cell permeabilization agents, PI stains the nuclei of necrotic cells. Early-stage apoptotic and normal cells maintain cell membrane integrity and thus are not stained by PI. A549 cells were treated with 1 and 2 (20 μM for 12 h), incubated with Hoechst 33258 and PI, and imaged using a fluorescence microscope.
Propidium Iodide Uptake. Untreated and treated A549 cells (1.5×10^6 cells/well) grown in six-well plates were washed with PBS (1 mL×3), harvested, incubated with PI (5 μM), and analyzed by using the FACSCalibur-HTS flow cytometer (BD Biosciences) (20 000 events per sample were acquired). The FL2 channel was used to assess intracellular PI uptake. Cell populations were analyzed using the FlowJo software (Tree Star).

confluent A549 cells = experiment: MTT cytotoxicity assay, confluent A549 cells; format: cell-based, human; details: for IC50: Table 2, confluent cells, 72 h exposure, read-out: IC50 A549 (confluent) lung carcinoma; for IC50 higher in confluent A549 cells than in A549 cells in log phase growth: confluent versus log phase
A549 cells [2] = experiment: Hoechst 33258/propidium iodide double staining, fluorescence microscopy; format: cell-based, human; details: for nuclear staining, Hoechst 33258 and PI uptake: 20 μM for 12 h; for PI staining on co-incubation with necrostatin-1: necrostatin-1 60 μM for 12 h
Protocol: as §1
Fluorescence Microscopy. A549 cells (1.5×10^6 cells/well) were incubated with and without 1 and 2 (20 μM) for 12 h. The media were then removed, and the cells were washed with additional media (2 mL×2). After incubation of the cells with more media containing Hoechst 33258 (7.5 μM) and PI (5 μM), the nuclear regions were imaged using a fluorescence microscope. Fluorescence imaging experiments were performed using a Zeiss Axiovert 200M inverted epifluorscence microscope with a Hamamatsu EM-CCD digital camera C9100 and a MS200 XY Piezo Z stage (Applied Scientific Instruments, Inc.). An X-Cite 120 metal halide lamp (EXFO) was used as the light source. Zeiss standard filter set 49 was employed for imaging the nuclear region. The microscope was operated with Volocity software (version 6.01, Improvision). The exposure time for acquisition of fluorescence images was kept constant for each series of images at each channel.

A549 cells [3] = experiment: Intracellular ROS assay (DCFH-DA, flow cytometry); format: cell-based, human; details: for induced ROS production in the presence of necrostatin-1: 20 μM for 12 h with necrostatin-1 60 μM; for intracellular ROS versus untreated control cells: 1, 2, shikonin 20 μM for 12 h, H2O2 1 mM for 1 h
Protocol: Characterization of Necroptotic Features. Having established that necrosome formation is a determinant of 1 and 2 activity, additional studies were performed to understand the cascade of events leading from necrosome formation to cell death. Necrosomes generate abnormally high levels of mitochondrial ROS, leading to ATP depletion and eventual degradation of the mitochondrial membrane potential. With this fact in mind, intracellular ROS production was quantified by flow cytometry using 6-carboxy-2′,7′-dichlorodihydrofluorescein diacetate (DCFH-DA), a well-established ROS indicator.
In FIG. 2: (A) Representative histograms displaying the green fluorescence emitted by DCFH-DA-stained A549 cells (i) and A549 cells treated with 1(20 μM for 12 h) (iii) or 1 (20 μM for 12 h) with nectrostatin-1 (60 μM for 12 h) (ii). (B) Representative histograms displaying the green fluorescence emitted by DCFH-DA-stained A549 cells (i) and A549 cells treated with 2 (20 μM for 12 h) (iii) or 2 (20 μM for 12 h) with nectrostatin-1 (60 μM for 12 h) (ii). (C) Representative histograms displaying the green fluorescence emitted by DCFH-DA-stained A549 cells (i) and A549 cells treated withH2O2 (1mM for 1 h) (iii). (D) Representative histograms displaying the green fluorescence emitted by DCFH-DA-stained A549 cells (i) and A549 cells treated with shikonin (20 μM for 12 h) (iii).
Intracellular ROS Assay. Untreated and treated A549 cells (1.5×10^6 cells/well) grown in six-well plates were incubated with 6-carboxy-2′,7′-dichlorodihydrofluorescein diacetate (20 μM) for 30 min. The cells were then washed with PBS (1 mL x 3), harvested, and analyzed by using a FACSCalibur-HTS flow cytometer (BD Biosciences) (20 000 events per sample were acquired). The FL1 channel was used to assess intracellular ROS levels. Cell populations were analyzed using the FlowJo software (Tree Star).

[4] = test system: MEFs PARP-1+/+ and MEFs PARP-1−/− cells; experiment: Cytotoxicity in MEFs PARP-1+/+ versus PARP-1-/- cells; format: cell-based, mouse; details: 72 h, FIG. 3A
Protocol: (PARP-1). PARP-1 is a nuclear enzyme that is involved in DNA repair and transcriptional regulation. DNA damage can trigger PARP-1 activity, resulting in ATP and NAD depletion and bioenergetics- mediated cell death. To determine whether PARP-1 activity is a factor in 1- and 2-mediated cell death, cytotoxicity assays were conducted with wild-type mouse embryonic fibroblast cells (MEFs PARP-1+/+) and the corresponding PARP-1-null cells (MEFs PARP-1−/−). […] Recently, p53 has also been reported to play a role in necroptosis. p53 induces cathepsin Q, a lysosomal protease that cooperates with ROS to execute necrosis. To investigate whether p53 might play a role in 1- and 2-mediated necroptosis, cytotoxicity studies were conducted with HCT116 p53^+/+ nd HCT116 p53^−/− cells.
Cell Cycle Analysis. To gain a more complete understanding of the cellular response evoked, DNA-flow cytometric studies were conducted to determine the effect of 1 and 2 on the cell cycle. A549 cells were treated with 1 or 2 (2 μM), and the cell cycle was determined over the course of 72 h. […] Upon further incubation (72 h), large populations of cell debris were detected (32%), indicative of cell death. […]
Cytotoxicity MTT Assay. […] The absorbance of the solution wells was read at 550 nm. Absorbance values were normalized to DMSO-containing control wells and plotted as the concentration of test compound versus % cell viability. […]

| Compound | PI uptake versus untreated control cells (A549 cells [1]) | effect of N-acetylcysteine pretreatment on induced PI uptake (A549 cells [1]) | effect of necrostatin-1 on mediated PI uptake (A549 cells [1]) | IC50 (confluent A549 cells) [µM] | IC50 higher in confluent A549 cells than in A549 cells in log phase growth (confluent A549 cells) [fold] | nuclear staining, Hoechst 33258 and PI uptake (A549 cells [2]) | PI staining on co-incubation with necrostatin-1 (A549 cells [2]) | induced ROS production in the presence of necrostatin-1 (A549 cells [3]) | intracellular ROS versus untreated control cells (A549 cells [3]) | IC50 in MEFs PARP-1+/+ compared with MEFs PARP-1−/− [4] |
| --- | --- | --- | --- | --- | --- | --- | --- | --- | --- | --- |
| C[O][Re](=[O])([Cl])[Cl].c1ccc(-c2ccnc3c2ccc2c(-c4ccccc4)ccnc23)cc1 [Compound 1, [ReO(OMe)(4,7-diphenyl-1,10-phenanthroline)-Cl2]] | higher PI uptake | significantly decreased | could block | 8.61 ± 0.749 | 40 | pink nuclei | unstained by PI | attenuated | markedly higher levels of ROS | similar |
| C[O][Re-2]1(=[O])([Cl])([Cl])[n+]2cc(C)c(C)c3ccc4c(C)c(C)c[n+]1c4c32 [Compound 2, [ReO(OMe)(3,4,7,8-tetramethyl-1,10-phenanthroline)Cl2]] | higher PI uptake | significantly decreased | could block | 5.25 ± 1.99 | 40 | pink nuclei | unstained by PI | attenuated | markedly higher levels of ROS | similar |
